The source made the active and inactive calls.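 How the source made its calls: active means plate Z score at or below -3, or inhibition of at least 30% at 20 µM; inactive means the rest.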

The nature of the experiment: EGFP reporter destabilization counter-screen – F442A EGFP cells, fluorescence, counter-screen for p/CIP destabilizer project, dose response (AID 2005).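 Further: cells express EGFP alone from a CMV promoter as a counter screen for p/CIP-EGFP.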 The note with it: F442A EGFP cells, EGFP fluorescence, 16 h, stronger effect = higher value.

With `COc1ccc(OC)c(Nc2ncnc3c2cnn3-c2ccccc2)c1`, the inhibition (EGFP decrease, at 10 µM) amounted to 17.8% and the inhibition (at 20 µM) was 9.9% (inactive).
On to `Cc1nnc(NC(=O)CSc2nccn2Cc2ccc(F)cc2)s1`, for which the inhibition was 22.4% (EGFP decrease, at 10 µM) and 16.3% (inactive) (at 20 µM).
The like results for `NNC(=O)c1ccc(-c2cccc([N+](=O)[O-])c2)o1` were, in that order, 4.6% and 9.1% (inactive).
On to `CCOc1ccc(-c2c[n+]3c(n2-c2ccccc2)CCCCC3)cc1`, for which the inhibition (EGFP decrease, at 10 µM) stood at 32.2% and the inhibition (at 20 µM) is 51.3%.
In the same order, the values of `Cc1cc(C(=O)Nc2cccc(O)c2)c(C)o1` are 7.4% and -9.8% (inactive).
The like results for `O=C(CN1CCN(Cc2ccccc2Cl)C1=O)NCc1ccco1` were, in that order, 17.1% and 31.5%.
`O=C(Nc1ccnn1C1CCN(Cc2ccccc2OC(F)F)CC1)c1cccc(F)c1`: the inhibition (EGFP decrease, at 10 µM) amounted to 26.5% and the inhibition (at 20 µM) is 37.8%.
The like results for `CCOc1ccccc1OCc1nn2c(-c3ccc(C)cc3)nnc2s1` were, in that order, -2% and -2.8% (inactive).
In the same order, the values of `CCn1cnc2cc(NCc3cccc(OC)c3O)ccc21` are 16.7% and 10.7% (inactive).
In the same order, the values of `COc1ccc(S(=O)(=O)Nc2cccc(-n3cnnn3)c2)cc1OC` are 6.4% and 6.9% (inactive).
Take `O=C(c1ccco1)N1CCN(C(=O)c2ccccc2[N+](=O)[O-])CC1`: the inhibition is 10.5% (EGFP decrease, at 10 µM) and 11.1% (inactive) (at 20 µM).
The like results for `COC(=O)c1ccc(NC(=O)CCCCCn2nnc3ccccc3c2=O)cc1` were, in that order, 5.4% and -4% (inactive).
In the same order, the values of `CCCNC(=O)c1ccc2c(=O)c(O)c(-c3cccc(Br)c3)[nH]c2c1` are -14.1% and -14.4% (inactive).
The like results for `NC(=O)C1CCCCc2c1[nH]c1ccc(Cl)cc21` (centres undefined) were, in that order, 16.2% and 7.6% (inactive).
For the molecule `O=C(CCCn1c(=O)c2cccn2c2cccnc21)NCc1cccc(Br)c1`, the inhibition runs as follows: (EGFP decrease, at 10 µM) -13.6%; (at 20 µM) 2.1% (inactive).
In the same order, the values of `O=C(Nc1ccc(N2CCOCC2)c(Cl)c1)c1ccc(-n2cnnc2)cc1` are 15.2% and 4.8% (inactive).
In the same order, the values of `CC(C)c1csc(CN2CCCC(CNC(=O)c3cccc4ccccc34)C2)n1` (centres undefined) are 15% and 4.5% (inactive).
The like results for `COc1ccc2c(C)cc3nncn3c2c1` were, in that order, -2.7% and 14.7% (inactive).
As for `CC(=O)c1ccc(OCc2cc(C(=O)NC3CCCCC3)no2)cc1`, the inhibition runs as follows: (EGFP decrease, at 10 µM) 15.2%; (at 20 µM) 9.5% (inactive).
In the same order, the values of `CC(C)C(=O)Nc1nnc(SCC(=O)NCc2cccs2)s1` are 11.1% and 12% (inactive).
The like results for `CCC(CC)NC(=O)COC(=O)CCC(=O)c1ccc(Cl)cc1` were, in that order, 5.2% and 24.9% (inactive).
The like results for `C(=N\NC1=Nc2cccc3cccc1c23)/c1ccccn1` were, in that order, 10.2% and 12% (inactive).
In the case of `COc1ccc2[nH]c(=O)c(-c3noc(-c4ccccc4)n3)cc2c1`, the inhibition runs as follows: (EGFP decrease, at 10 µM) 22.9%; (at 20 µM) 9.8% (inactive).
The like results for `CCS(=O)(=O)N1CCN(c2nc(-c3ccccc3)cs2)CC1` were, in that order, 13.7% and 15.1% (inactive).
Consider `CCc1ccc(CN2CCC(n3nccc3NC(=O)c3ccccc3C)CC2)cc1`, for which the inhibition runs as follows: (EGFP decrease, at 10 µM) 22.7%; (at 20 µM) -0.4% (inactive).
In the same order, the values of `CCC1=C2CC[C@H]3C(=O)N(C)C(=O)[C@H]3[C@H]2[C@@]2(Cc3ccccc3)C(=NCCOC)OC(=O)N2C1=O` are -6.2% and 13.4% (inactive).
As for `CCCCC(=O)NNC(=S)NC(=O)CCC`, the inhibition is, setting by setting: (EGFP decrease, at 10 µM) 8.3%; (at 20 µM) 15.7% (inactive).
With `COc1ccc(/C=C/C(=O)Nc2cccc(N3CCOCC3)c2)cc1OC`, the inhibition reads like this: (EGFP decrease, at 10 µM) -4.5%; (at 20 µM) 6.7% (inactive).
For `O=C(NCc1ccc(Cl)cc1)C1CCN(S(=O)(=O)c2cccs2)CC1`, the inhibition is 6% (EGFP decrease, at 10 µM) and 6.7% (inactive) (at 20 µM).
Regarding `C[C@@H](CN1C2=NC[C@H](Cc3ccc(O)cc3)N2C[C@H]1Cc1ccc(O)cc1)NC(=O)CCC1CCCCC1`, the inhibition is 19.4% (EGFP decrease, at 10 µM) and 28.8% (inactive) (at 20 µM).
In the same order, the values of `CCCCN(CC)C(=O)c1cc2cc3ccc(OC)cc3nc2o1` are 23.8% and 25.6% (inactive).
The like results for `COc1ccc(NC(=O)N2CCn3c2nc2ccccc23)cc1` were, in that order, 17.9% and 30.9%.
In the same order, the values of `O=C(NCc1ccc(Cl)cc1)c1ccc(-c2ccccc2C(F)(F)F)o1` are 16.5% and -4.8% (inactive).
For `CC(=O)Nc1ccc(SCC(=O)Nc2ccccc2Oc2ccccc2)cc1`, the inhibition was 21.8% (EGFP decrease, at 10 µM) and 14.4% (inactive) (at 20 µM).
In the same order, the values of `Cc1nn(C)c(Cl)c1S(=O)(=O)N[C@@H](c1ccccc1)[C@]1(C)C[C@H]1[C@@H](C)C(=O)Nc1ccc2ccccc2c1` are 34.6% and 11.3% (inactive).
The like results for `O=C(O)c1cccc(NC(=O)C2C3C=CC(C3)C2C(=O)O)c1` (centres undefined) were, in that order, 17.4% and 18% (inactive).
In the same order, the values of `Cc1cc2c(c(Sc3ccccc3)n1)C(=O)OC2` are -4% and -3.5% (inactive).
With `C/C(=C/C=C/[C@@H](C)C(=O)O)[C@H]1CN[C@H](C(=O)O)[C@H]1CC(=O)O`, the inhibition is, setting by setting: (EGFP decrease, at 10 µM) -8.3%; (at 20 µM) 10.3% (inactive).
The like results for `COc1cc2c(cc1OC)/C(=C/C#N)NC(C)(C)C2` were, in that order, 6.8% and 8% (inactive).
In the same order, the values of `O=C(NCC1CCCO1)C1CCCCN1S(=O)(=O)c1ccc(F)cc1` (centres undefined) are -13.3% and 9.4% (inactive).
In the same order, the values of `COc1cccc(-c2noc(-c3ccc(Cl)nc3)n2)c1` are -8.2% and -3.6% (inactive).
Consider `Cc1ccc2nc(-c3ccc(S(=O)(=O)N4CCOCC4)cc3)cn2c1`, for which the inhibition is, setting by setting: (EGFP decrease, at 10 µM) 14.7%; (at 20 µM) 6.1% (inactive).
In the same order, the values of `C=CCN1C(=O)/C(=C2/Sc3ccccc3N2C)SC1=Nc1ccccc1C` are 1.3% and 8.6% (inactive).
The like results for `Cc1nc2sc(C(c3cccc(F)c3)N3CC(C)OC(C)C3)c(O)n2n1` (centres undefined) were, in that order, 6.2% and 30%.
In the same order, the values of `Cc1cc(C)n(-c2nc3c(c(=O)[nH]c(=O)n3C)n2CC(O)COc2ccccc2)n1` (centres undefined) are -7.9% and 7.8% (inactive).
For the molecule `COc1ccc(Cl)c(NC(=O)Nc2c(C)n(-c3ccccc3)c(=O)n2C)c1`, the inhibition is, setting by setting: (EGFP decrease, at 10 µM) 8.4%; (at 20 µM) 26.9% (inactive).
`O=C(c1cc(-c2ccccc2)on1)N1CCN(C(=O)c2ccco2)CC1`: the inhibition is 18.5% (EGFP decrease, at 10 µM) and 4.9% (inactive) (at 20 µM).

For the origin of these results see PubChem BioAssay AID2005 (Sanford-Burnham Center for Chemical Genomics, 2009).
